Reference: ChEMBL document CHEMBL5380851, “"Magic Chloro": Profound Effects of the Chlorine Atom in Drug Discovery” (J Med Chem, 2023)

Assay: Dissociation constant, pKa of the compound

pKa	Compound
3.83	Clc1ccncc1
2.81	Clc1cccnc1

Compound	pKa
Clc1ccccn1 [2-CHLOROPYRIDINE]	0.49
